In experiment [1] the test system is Rat kidney cell line (NRK-49F cell line). Briefly: Fibrotic factor inhibition in rat kidney cell line (western blot). The format is cell-based. To be noted: 5 ng/ml TGFb, 2.5, 5, 10 μM, 48 hours, FIG. 6.
Experiment [2] deals with C57BL/6 male mice. Briefly: Mouse renal failure prevention model by Adenine diet. The format is in vivo. To be noted: oral once a day 5, 10, 20 mg/kg for 4 weeks, simultaneously with adenine. The method, then: A feed containing adenine was administered to C57BL/6 male mice as described in Ali et al. J Pharmacol Toxicol Methods 2013; Jia et al. BMC Nephrol 2013; Tanaka et al. Am J Pathol 2009. Simultaneously with the start of adenine administration, 5 mg/kg, 10 mg/kg, and 20 mg/kg of the compounds of Examples were orally administered daily for 4 weeks (FIG. 8). Physiological saline was administered to the negative control group (vehicle). Blood BUN and Creatinine, which are the primary indicators of kidney function, were measured.
Additionally, the degree of fibrosis of the mouse kidney tissue was measured through immunochemical staining.

In another experiment the test system is CD4+ T cells. Briefly: CD4+ T cell proliferation inhibition (CFSE staining, flow cytometry). The format is cell-based. To be noted: human blood CD4+ T cells; 1.25, 2.5, 5, 10 μM; 5 days; FIG. 2. As for the experimental part:
(§1) PBMCs were transferred to a new tube using a pipette. After RBC lysis buffer was added to PBMC, centrifugation was performed, and then CD8 or CD4 cells were isolated using CD8 MicroBeads (Miltenyl Biotec, 130-045-201) or CD4 MicroBeads (Miltenyl Biotec, 130-096-533). A CFSE (-(and-6)-Carboxyfluorescein Diacetate, Succinimidyl Ester) labeling solution (Invitrogen, C1157) was added to the isolated cells. The compounds of Examples were dissolved in DMSO to make a 5 mM stock, then treated to make 1.25 μM, 2.5 μM, 5 μM, and 10 μM, respectively. After 5 days, the degree of cell proliferation was measured by the amount of CFSE staining using flow cytometry, and the results are shown in FIG. 2.

The test system of a further experiment is CD8+ T cells. Briefly: CD8+ T cell proliferation inhibition (CFSE staining, flow cytometry). It counts as cell-based. Particulars: human blood CD8+ T cells; 1.25, 2.5, 5, 10 μM; 5 days; FIG. 2. As for the experimental part: as §1
The next experiment has as its system gdT cells. Briefly: Inhibition of IL-17 factor in gdT cells (IL-17A ELISA). The format is cell-based. To be noted: gdT cells from normal human blood; 10 μM; IL-2 and IL-15 10 ng/ml each; FIG. 3. The method, then: After collecting 10 ml of normal human blood, ficoll density gradient medium (Cytiva, 17144003) and PBS, the immune cell layer (PBMC) was isolated using a centrifuge. PBMCs were transferred to a new tube using a pipette. After RBC lysis buffer was added to PBMC, centrifugation was performed, and then 10 ng/ml of human IL-2 and IL-15 protein (cytokine) were respectively added to the cells, and cultured (for the purpose of inducing IL-17A). The compounds of Examples were dissolved in DMSO to make a 5 mM stock, and then 10 μM of the example compound was treated. On the 3rd and 5th days of cytokine treatment, 10 ng/ml of human IL-2 and IL-15 proteins (cytokine) were added, centrifuged, and the supernatant was collected. The IL-17A expression level was confirmed with the collected supernatant using an IL-17A ELISA kit (DY371, R&D Systems), and the results are shown in FIG. 3.
Background: ELISA stands for enzyme-linked immunosorbent assay.

The test system of experiment [3] is human primary kidney cells. Briefly: Fibrotic factor inhibition in human primary kidney cells (western blot). The format is cell-based. Particulars: 5 ng/ml TGFb, 1.25 µM, 2.5 μM, 5 μM, 48 hours, FIG. 7. As for the experimental part: Digestion buffer was added to human kidney tissue (preserved after biopsy), cut into small pieces with scissors, and then disintegrated through a shaker incubation for 90 minutes. After filtering the disintegrated tissue through a 70 μm filter cell strainer, the remaining tissue was filtered once again using a 40 μm filter cell strainer. The filtered disintegrated tissue solution was centrifuged, and the cells were isolated and cultured. The cultured cells were treated with 5 ng/ml TGFb and […], 2.5 μM, and 5 μM of the compounds of Examples, respectively, and then 48 hours later, cells were harvested, and western blot was performed to quantitatively analyze fibrotic factor proteins.

Experiment [4] has as its system C57BL/6 male mice. Briefly: Mouse renal failure treatment model by Adenine diet. It counts as in vivo. To be noted: oral once a day 5, 10, 20 mg/kg for 2 weeks, starting 2 weeks after start of adenine. As for the experimental part:
A feed containing adenine was administered to C57BL/6 male mice as described in Ali et al. J Pharmacol Toxicol Methods 2013; Jia et al. BMC Nephrol 2013; Tanaka et al. Am J Pathol 2009. Starting 2 weeks after the start of adenine administration, 5 mg/kg, 10 mg/kg and 20 mg/kg of the compounds of Examples were orally administered daily for 2 weeks (FIG. 4). Physiological saline was administered to the negative control group (vehicle). Blood BUN and Creatinine, which are the primary indicators of kidney function, were measured.
Further, the degree of fibrosis of the mouse kidney tissue was measured through immunochemical staining, and the results are shown in FIG. 5.

Experiment [5] deals with C57BL/6 male mice. Briefly: NTN (Nephrotoxic Serum-Induced Nephritis) model. It counts as in vivo, mouse. To be noted: oral 5, 10, 20 mg/kg for 7 days from disease induction. The method, then: After sensitizing C57BL/6 male mice with 200 μg sheep IgG and Freund's […] adjuvant, 10 μg of sheep nephrotoxic serum was injected after five days to induce disease. From the day the disease was induced, the compounds of Examples were orally administered at doses of 5 mg/kg, 10 mg/kg, and 20 mg/kg for 7 days, respectively. Saline was administered to the negative control group (vehicle). On day 8, renal function (uPCR, BUN) was assessed.
The NTN model is a glomerulonephritis model that causes inflammation in the glomeruli, which induces proteinuria.

Structures are written as SMILES.

For `O[C@H]1CCCN[C@@H]1CCCn1cnc2c(Cl)c(Cl)ccc21` [Example], in experiment [1], the fibrotic factor collagen result was “significantly inhibited”, the “fibrotic factor fibronectin” value is reported as “significantly inhibited” and the “fibrotic factor αSMA” value is on record as “significantly inhibited”. In addition, in the experiment on C57BL/6 male mice [2] (FIG. 8), the “deterioration of renal function (blood BUN and Creatinine)” value was “significantly inhibited in a dose-dependent manner”; the “preventive effect on kidney damage caused by Adenine diet” value is “exhibited preventive effect”. In the experiment with C57BL/6 male mice [2] (FIG. 9), the “collagen accumulation in renal tissue (immunochemical staining)” value is listed as “significantly inhibited in a dose-dependent manner”. Besides, the “CD4+ T cell proliferation” value in the experiment on CD4+ T cells is listed as “cell proliferation is inhibited”. Moreover, the “CD8+ T cell proliferation” value with CD8+ T cells is reported as “cell proliferation is inhibited”. In the experiment with gdT cells, the IL-17 cytokine inhibition entry is “inhibited”. Moreover, in experiment [3], the fibrotic factor collagen entry is “significantly inhibited”, the fibrotic factor fibronectin entry was “significantly inhibited” and the “fibrotic factor αSMA” value is “significantly inhibited”. Moreover, the “deterioration of renal function (blood BUN and Creatinine)” value in the experiment with C57BL/6 male mice [4] (FIG. 4) was “significantly inhibited in a dose-dependent manner”. Also, in the experiment with C57BL/6 male mice [4] (FIG. 5), the “accumulation of collagen in renal tissue (immunochemical staining)” value is “significantly inhibited in a dose-dependent manner”. Moreover, the “effect on damaged glomerular tissue” value with C57BL/6 male mice [5] (FIG. 10 and FIG. 11 (immunochemical staining)) is listed as “effective in damaged glomerular tissue”. The “proteinuria (uPCR)” value with C57BL/6 male mice [5] (assessed day 8, PRSi 5 mg/kg on the left side of FIG. 10) was “significantly reducing proteinuria”.

(Values after patent US20260345556A1, “Pharmaceutical Composition for Preventing or Treating Nephritis” (Daewoong Pharmaceutical Co., Ltd., priority 2022, published 2026).)
